The target in this test is T1, TNF-α (Homo sapiens, UniProt P01375).
T1 construct: purchased R&D 210-TA-020/CF
The test is described as follows: TNF-α Induced HEK Blue Cellular Assay (secreted alkaline phosphatase expression, QUANTI-Blue). The test is classed as cell-based. The conditions noted are these: HEK Blue TNFα reporter cells, TNF-α 100 μg/ml, 24 hrs at 37° C., inhibition of secreted alkaline phosphatase. The method, boiled down:
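Compound was serially diluted from […] to 0.5 nM final, then incubated with 10,000 HEK Blue TNFα reporter cells per well and […] TNF-α for 24 h at 37° C. SEAP output was read by QUANTI-Blue absorbance at 620 nm. Inhibition was background-corrected against DMSO controls with and without stimulation, and IC50 was fitted with a 4-parameter logistic equation.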

Molecules are shown by their SMILES. Like-named read-outs stand apart in the source and are kept apart here. Where only a bound is given, the exact number is not on record here.

T1 sequence (P01375 77-233 limits assumed): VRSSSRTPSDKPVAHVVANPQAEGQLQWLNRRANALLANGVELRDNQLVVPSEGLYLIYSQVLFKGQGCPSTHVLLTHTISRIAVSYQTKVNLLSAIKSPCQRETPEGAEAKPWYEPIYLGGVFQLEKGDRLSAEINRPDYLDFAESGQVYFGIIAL

By IC50 is commonly meant the concentration that inhibits the measured activity by half. On to `[2H]C([2H])([2H])N1C(=O)c2cccc(OC(F)F)c2[C@H]2C[C@@H]1c1nc3ccc(C#CCOC4CCN(C(=O)OC(C)(C)C)CC4)cc3n12` [Example 116, tert-butyl 4-((3-((7R,14R)-1-(difluoromethoxy)-6-(methyl-d3)-5-oxo-5,6,7,14-tetrahydro-7,14-methanobenzo[f]benzo[4,5]imidazo[1,2-a][1,4]diazocin-11-yl)prop-2-yn-1-yl)oxy)piperidine-1-carboxylate], for which, where the note is “read-out: IC50 value”, the IC50 was in the range of 1 to 10 µM. Take `[2H]C([2H])([2H])N1C(=O)c2cccc(OC(F)F)c2[C@H]2C[C@@H]1c1nc3ccc(C#CCOC4CCNCC4)cc3n12` [Example 117, (7R,14R)-1-(difluoromethoxy)-6-(methyl-d3)-11-(3-(piperidin-4-yloxy)prop-1-yn-1-yl)-6,7-dihydro-7,14-methanobenzo[f]benzo[4,5]imidazo[1,2-a][1,4]diazocin-5(14H)-one]: the half-inhibitory concentration (IC50) (read-out: IC50 value) lay in the range of 0.1 to 1 µM. `[2H]C([2H])([2H])N1C(=O)c2cccc(OC(F)F)c2[C@H]2C[C@@H]1c1nc3ccc(C#CC4CN(CC)C4)cc3n12` [Example 118, (7R,14R)-1-(difluoromethoxy)-11-((1-ethylazetidin-3-yl)ethynyl)-6-(methyl-d3)-6,7-dihydro-7,14-methanobenzo[f]benzo[4,5]imidazo[1,2-a][1,4]diazocin-5(14H)-one]: the IC50 (read-out: IC50 value) was below 0.1 µM. On to `[2H]C([2H])([2H])N1C(=O)c2cccc(OC(F)F)c2[C@H]2C[C@@H]1c1nc3ccc(C#CC4CN(C(C)C)C4)cc3n12` [Example 119, (7R,14R)-1-(difluoromethoxy)-11-((1-isopropylazetidin-3-yl)ethynyl)-6-(methyl-d3)-6,7-dihydro-7,14-methanobenzo[f]benzo[4,5]imidazo[1,2-a][1,4]diazocin-5(14H)-one], for which the IC50 (read-out: IC50 value) was below 0.1 µM. For the setting “IC50 value”, `[2H]C([2H])([2H])N1C(=O)c2cccc(OC(F)F)c2[C@H]2C[C@@H]1c1nc3ccc(C#CC4CN(C(C)=O)C4)cc3n12` [Example 120, (7R,14R)-11-((1-acetylazetidin-3-yl)ethynyl)-1-(difluoromethoxy)-6-(methyl-d3)-6,7-dihydro-7,14-methanobenzo[f]benzo[4,5]imidazo[1,2-a][1,4]diazocin-5(14H)-one] showed an IC50 below 0.1 µM. Consider `[2H]C([2H])([2H])N1C(=O)c2cccc(OC(F)F)c2[C@H]2C[C@@H]1c1nc3ccc(C#CC4CN(S(C)(=O)=O)C4)cc3n12` [Example 121, (7R,14R)-1-(difluoromethoxy)-6-(methyl-d3)-11-((1-(methylsulfonyl)azetidin-3-yl)ethynyl)-6,7-dihydro-7,14-methanobenzo[f]benzo[4,5]imidazo[1,2-a][1,4]diazocin-5(14H)-one], for which, for the setting “read-out: IC50 value”, the IC50 was below 0.1 µM. `[2H]C([2H])([2H])N1C(=O)c2cccc(OC(F)F)c2[C@H]2C[C@@H]1c1nc3ccc(C#CCCN)cc3n12` [Example 123, (7R,14R)-11-(4-aminobut-1-yn-1-yl)-1-(difluoromethoxy)-6-(methyl-d3)-6,7-dihydro-7,14-methanobenzo[f]benzo[4,5]imidazo[1,2-a][1,4]diazocin-5(14H)-one]: the concentration for half-maximal inhibition (IC50) (read-out: IC50 value) is 0.1 to 1 µM. On the same count and under the same terms, the result for `[2H]C([2H])([2H])N1C(=O)c2cccc(OC(F)F)c2[C@H]2C[C@@H]1c1nc3ccc(C#CC4CN(CC(F)(F)F)C4)cc3n12` [Example 124, (7R,14R)-1-(difluoromethoxy)-6-(methyl-d3)-11-((1-(2,2,2-trifluoroethyl)azetidin-3-yl)ethynyl)-6,7-dihydro-7,14-methanobenzo[f]benzo[4,5]imidazo[1,2-a][1,4]diazocin-5(14H)-one] reads below 0.1 µM; that for `[2H]C([2H])([2H])N1C(=O)c2cccc(OC(F)F)c2[C@H]2C[C@@H]1c1nc3ccc(C#CC4CN(C(=O)C(C)(C)C)C4)cc3n12` [Example 125, (7R,14R)-1-(difluoromethoxy)-6-(methyl-d3)-11-((1-pivaloylazetidin-3-yl)ethynyl)-6,7-dihydro-7,14-methanobenzo[f]benzo[4,5]imidazo[1,2-a][1,4]diazocin-5(14H)-one], below 0.1 µM. Same read-out and setting: for `[2H]C([2H])([2H])N1C(=O)c2cccc(OC(F)F)c2[C@H]2C[C@@H]1c1nc3ccc(C#CC4CN(C(=O)C(C)(C)O)C4)cc3n12` [Example 126, (7R,14R)-1-(difluoromethoxy)-11-((1-(2-hydroxy-2-methylpropanoyl)azetidin-3-yl)ethynyl)-6-(methyl-d3)-6,7-dihydro-7,14-methanobenzo[f]benzo[4,5]imidazo[1,2-a][1,4]diazocin-5(14H)-one] the value was below 0.1 µM; for `[2H]C([2H])([2H])N1C(=O)c2cccc(OC(F)F)c2[C@H]2C[C@@H]1c1nc3ccc(C#CC4CN(C(=O)C5CC5)C4)cc3n12` [Example 127, (7R,14R)-11-((1-(cyclopropanecarbonyl)azetidin-3-yl)ethynyl)-1-(difluoromethoxy)-6-(methyl-d3)-6,7-dihydro-7,14-methanobenzo[f]benzo[4,5]imidazo[1,2-a][1,4]diazocin-5(14H)-one], below 0.1 µM. On the same count and under the same terms, for `[2H]C([2H])([2H])N1C(=O)c2cccc(OC(F)F)c2[C@H]2C[C@@H]1c1nc3ccc(C#C[C@@H](C)CO)cc3n12` [Example 128, (7R,14R)-1-(difluoromethoxy)-11-((R)-4-hydroxy-3-methylbut-1-yn-1-yl)-6-(methyl-d3)-6,7-dihydro-7,14-methanobenzo[f]benzo[4,5]imidazo[1,2-a][1,4]diazocin-5(14H)-one] the value was below 0.1 µM. With `[2H]C([2H])([2H])N1C(=O)c2cccc(OC(F)F)c2[C@H]2C[C@@H]1c1nc3ccc(C#C[C@H](C)CO)cc3n12` [Example 129, (7R,14R)-1-(difluoromethoxy)-11-((S)-4-hydroxy-3-methylbut-1-yn-1-yl)-6-(methyl-d3)-6,7-dihydro-7,14-methanobenzo[f]benzo[4,5]imidazo[1,2-a][1,4]diazocin-5(14H)-one], where the note is “read-out: IC50 value”, the 50% inhibitory concentration (IC50) is below 0.1 µM. Still for that read-out and setting: for `[2H]C([2H])([2H])N1C(=O)c2cccc(OC(F)F)c2[C@H]2C[C@@H]1c1nc3ccc(C#CC4(CO)CC4)cc3n12` [Example 130, (7R,14R)-1-(difluoromethoxy)-11-((1-(hydroxymethyl)cyclopropyl)ethynyl)-6-(methyl-d3)-6,7-dihydro-7,14-methanobenzo[f]benzo[4,5]imidazo[1,2-a][1,4]diazocin-5(14H)-one] the value was 0.1 to 1 µM; for `[2H]C([2H])([2H])N1C(=O)c2cccc(OC(F)F)c2[C@H]2C[C@@H]1c1nc3ccc(C#CCOC(F)F)cc3n12` [Example 131, (7R,14R)-1-(difluoromethoxy)-11-(3-(difluoromethoxy)prop-1-yn-1-yl)-6-(methyl-d3)-6,7-dihydro-7,14-methanobenzo[f]benzo[4,5]imidazo[1,2-a][1,4]diazocin-5(14H)-one], below 0.1 µM; for `[2H]C([2H])([2H])N1C(=O)c2cccc(OC(F)F)c2[C@H]2C[C@@H]1c1nc3ccc(C#CCCC(F)F)cc3n12` [Example 132, (7R,14R)-1-(difluoromethoxy)-11-(5,5-difluoropent-1-yn-1-yl)-6-(methyl-d3)-6,7-dihydro-7,14-methanobenzo[f]benzo[4,5]imidazo[1,2-a][1,4]diazocin-5(14H)-one], below 0.1 µM. Still for that read-out and setting: for `[2H]C([2H])([2H])N1C(=O)c2cccc(OC(F)F)c2[C@H]2C[C@@H]1c1nc3ccc(C#CCCCN4CCN(C)CC4)cc3n12` [Example 133, (7R,14R)-1-(difluoromethoxy)-6-(methyl-d3)-11-(5-(4-methylpiperazin-1-yl)pent-1-yn-1-yl)-6,7-dihydro-7,14-methanobenzo[f]benzo[4,5]imidazo[1,2-a][1,4]diazocin-5(14H)-one] the value was 0.1 to 1 µM. The same measure, in the same setting: the result for `[2H]C([2H])([2H])N1C(=O)c2cccc(OC(F)F)c2[C@H]2C[C@@H]1c1nc3ccc(C#CCCN4CCN(C)CC4)cc3n12` [Example 134, (7R,14R)-1-(difluoromethoxy)-6-(methyl-d3)-11-(4-(4-methylpiperazin-1-yl)but-1-yn-1-yl)-6,7-dihydro-7,14-methanobenzo[f]benzo[4,5]imidazo[1,2-a][1,4]diazocin-5(14H)-one] reads below 0.1 µM. Take `[2H]C([2H])([2H])N1C(=O)c2cccc(OC(F)F)c2[C@H]2C[C@@H]1c1nc3ccc(C#CCCN4CCC4)cc3n12` [Example 135, (7R,14R)-11-(4-(azetidin-1-yl)but-1-yn-1-yl)-1-(difluoromethoxy)-6-(methyl-d3)-6,7-dihydro-7,14-methanobenzo[f]benzo[4,5]imidazo[1,2-a][1,4]diazocin-5(14H)-one]: the IC50 (IC50 value) is below 0.1 µM. In the case of `[2H]C([2H])([2H])N1C(=O)c2cccc(OC(F)F)c2[C@H]2C[C@@H]1c1nc3ccc(C#CCCN4CCCC4)cc3n12` [Example 136, (7R,14R)-1-(difluoromethoxy)-6-(methyl-d3)-11-(4-(pyrrolidin-1-yl)but-1-yn-1-yl)-6,7-dihydro-7,14-methanobenzo[f]benzo[4,5]imidazo[1,2-a][1,4]diazocin-5(14H)-one], the IC50 (read-out: IC50 value) was below 0.1 µM. Still for that read-out and setting: the result for `[2H]C([2H])([2H])N1C(=O)c2cccc(OC(F)F)c2[C@H]2C[C@@H]1c1nc3ccc(C#CCC(=O)OC)cc3n12` [Example 138, methyl 4-((7R,14R)-1-(difluoromethoxy)-6-(methyl-d3)-5-oxo-5,6,7,14-tetrahydro-7,14-methanobenzo[f]benzo[4,5]imidazo[1,2-a][1,4]diazocin-11-yl)but-3-ynoate] reads 10 to 30 µM; that for `[2H]C([2H])([2H])N1C(=O)c2cccc(OC(F)F)c2[C@H]2C[C@@H]1c1nc3ccc(C#CC4CC(C#N)C4)cc3n12` (stereo partly drawn) [Example 141, 3-(((7R,14R)-1-(difluoromethoxy)-6-(methyl-d3)-5-oxo-5,6,7,14-tetrahydro-7,14-methanobenzo[f]benzo[4,5]imidazo[1,2-a][1,4]diazocin-11-yl)ethynyl)cyclobutane-1-carbonitrile], below 0.1 µM.

The record behind these values is patent US20260365682A1, “MODULATORS OF TNF-ALPHA ACTIVITY” (Forward Therapeutics, Inc., priority 2022, published 2026).
